According to publication PMC8058351, “Discovery of Kasugamycin as a Potent Inhibitor of Glycoside Hydrolase Family 18 Chitinases” (Frontiers in Molecular Biosciences, 2021):

Columns and labels:
HsCht [1] = target: T1, HsCht (Homo sapiens, UniProt Q13231); experiment: Inhibitory activity determination with MU-β-(GlcNAc)2, Dixon plots; format: biochemical
T1 construct: the catalytic domains of OfChtI from Ostrinia furnacalis (O. furnacalis), human HsCht and acidic mammalian chitinase (AMCase); made in house; host or cells: Pichia pastoris GS115 (secreted)
Excerpt: (§1) The recombinant GH18 chitinases for inhibitory activity evaluation including OfChi-h and the catalytic domains of OfChtI from Ostrinia furnacalis (O. furnacalis), human HsCht and acidic mammalian chitinase (AMCase) were extracellularly expressed in Pichia pastoris GS115. SmChiA from Serratia marcescens was expressed in Escherichia coli BL21 (DE3). All the proteins were purified from the culture medium by immobilized metal affinity chromatography (IMAC) as described previously ([Chen et al., 2014]). The purities of the target proteins were analyzed by SDS-PAGE followed by Coomassie Brilliant Blue R-250 staining.
(§2) 20 nM enzyme was incubated with 10 μL substrate [0.2 μM MU-β-(GlcNAc)2] in 20 mM sodium phosphate buffer (pH 6.0 for OfChi-h, OfChtI, HsCht and SmChiA, and pH 5.2 for AMCase) containing 2 μL inhibitor at 30°C. The reaction in the absence of inhibitor and substrate was used as the control. After 30 min, an equal volume of 0.5 M Na2CO3 was added to the reaction mixture to stop the reaction, and the fluorescence of the released MU was quantitated using an Infinite® 200 PRO microplate reader (Tecan, Swiss) with excitation and emission wavelengths of 360 and 450 nm, respectively. Experiments were performed in triplicate. For the determination of the mode of inhibition and the inhibition constant (K i) value, the reaction mixtures contained three MU-β-(GlcNAc)2 concentrations (5, 10 and 20 μM for OfChi-h, AMCase and SmChiA; 5, 7.5 and 10 μM for HsCht; and 1, 2 and 4 μM for OfChtI). The inhibitor concentration varied according to the inhibitory activity. The Ki values and types of inhibition were determined by linear fitting of data in Dixon plots.

AMCase [2] = target: T2, AMCase (Homo sapiens, UniProt Q9BZP6); experiment: as above; format: biochemical
T2 construct: the catalytic domains of OfChtI from Ostrinia furnacalis (O. furnacalis), human HsCht and acidic mammalian chitinase (AMCase); made in house; host or cells: Pichia pastoris GS115 (secreted)
Excerpt: as §1, §2

OfChtI [3] = target: T3, OfChtI (Ostrinia furnacalis, UniProt Q2V6H4); experiment: as above; format: biochemical
Excerpt: as §1, §2

SmChiA [4] = target: T4, SmChiA (Serratia marcescens, UniProt P07254); experiment: as above; format: biochemical
T4 construct: made in house; host or cells: Escherichia coli BL21 (DE3)
Excerpt: as §1, §2

OfChi-h [5] = target: T5, OfChi-h (Ostrinia furnacalis, UniProt Q4AE59); experiment: as above; format: biochemical
T5 construct: made in house; host or cells: Pichia pastoris GS115 (secreted)
Excerpt: as §1, §2

HsCht [6] = target: T1, HsCht; experiment: Tryptophan fluorescence quenching spectroscopy; format: binding
Excerpt: as §1
(§3) All tryptophan fluorescence spectroscopy experiments were performed using the Infinite® 200 PRO microplate reader (Tecan, Swiss). The excitation wavelength was fixed to 285 nm and emission spectra were collected between 320 and 450 nm with a slit width of 2 nm. The temperature was maintained at 30°C. Fluorescence quenching experiments were performed in a 100 μL mixture containing 1 μM protein in the 20 mM sodium phosphate buffer (pH 6.0 for OfChi-h, OfChtI, HsCht and SmChiA, and pH 5.2 for AMCase), and by the successive addition of 1 μL compounds stock solution. The inhibitor concentration varied according to the enzyme activity. The dissociation constant (K d) value was analyzed by nonlinear regression with the “One Site-Specific Binding” model using GraphPad Prism 7.04.

AMCase [7] = target: T2, AMCase; experiment: Tryptophan fluorescence quenching spectroscopy; format: binding
Excerpt: as §1, §3

OfChtI [8] = target: T3, OfChtI; experiment: Tryptophan fluorescence quenching spectroscopy; format: binding
Excerpt: as §1, §3

SmChiA [9] = target: T4, SmChiA; experiment: Tryptophan fluorescence quenching spectroscopy; format: binding
Excerpt: as §1, §3

OfChi-h [10] = target: T5, OfChi-h; experiment: Tryptophan fluorescence quenching spectroscopy; format: binding
Excerpt: as §1, §3

T1 sequence (Q13231 22-388 limits assumed): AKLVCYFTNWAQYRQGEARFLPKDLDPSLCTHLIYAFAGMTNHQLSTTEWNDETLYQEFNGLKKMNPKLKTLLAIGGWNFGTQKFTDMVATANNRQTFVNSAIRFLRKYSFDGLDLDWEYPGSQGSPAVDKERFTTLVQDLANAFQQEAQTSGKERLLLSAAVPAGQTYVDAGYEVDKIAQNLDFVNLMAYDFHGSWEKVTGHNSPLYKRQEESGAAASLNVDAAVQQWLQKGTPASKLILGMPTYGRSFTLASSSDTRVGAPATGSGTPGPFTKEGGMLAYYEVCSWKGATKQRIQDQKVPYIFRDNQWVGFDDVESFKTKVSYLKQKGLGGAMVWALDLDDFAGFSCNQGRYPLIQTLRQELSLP
T5 sequence (Q4AE59 18-553): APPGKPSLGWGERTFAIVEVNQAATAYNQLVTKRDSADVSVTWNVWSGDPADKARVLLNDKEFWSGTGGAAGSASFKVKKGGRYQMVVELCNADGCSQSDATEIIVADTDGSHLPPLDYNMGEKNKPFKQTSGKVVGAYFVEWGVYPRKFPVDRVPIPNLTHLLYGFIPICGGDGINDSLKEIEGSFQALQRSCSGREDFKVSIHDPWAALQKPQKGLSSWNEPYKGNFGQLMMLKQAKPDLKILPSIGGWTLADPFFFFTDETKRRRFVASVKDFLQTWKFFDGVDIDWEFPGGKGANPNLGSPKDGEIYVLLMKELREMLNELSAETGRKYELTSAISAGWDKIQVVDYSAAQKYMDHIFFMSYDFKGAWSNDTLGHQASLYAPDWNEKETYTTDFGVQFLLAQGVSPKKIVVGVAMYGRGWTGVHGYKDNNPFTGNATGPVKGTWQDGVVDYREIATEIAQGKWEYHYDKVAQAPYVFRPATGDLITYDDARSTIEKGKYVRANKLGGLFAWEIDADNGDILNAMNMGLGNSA
T4 sequence (P07254 24-563): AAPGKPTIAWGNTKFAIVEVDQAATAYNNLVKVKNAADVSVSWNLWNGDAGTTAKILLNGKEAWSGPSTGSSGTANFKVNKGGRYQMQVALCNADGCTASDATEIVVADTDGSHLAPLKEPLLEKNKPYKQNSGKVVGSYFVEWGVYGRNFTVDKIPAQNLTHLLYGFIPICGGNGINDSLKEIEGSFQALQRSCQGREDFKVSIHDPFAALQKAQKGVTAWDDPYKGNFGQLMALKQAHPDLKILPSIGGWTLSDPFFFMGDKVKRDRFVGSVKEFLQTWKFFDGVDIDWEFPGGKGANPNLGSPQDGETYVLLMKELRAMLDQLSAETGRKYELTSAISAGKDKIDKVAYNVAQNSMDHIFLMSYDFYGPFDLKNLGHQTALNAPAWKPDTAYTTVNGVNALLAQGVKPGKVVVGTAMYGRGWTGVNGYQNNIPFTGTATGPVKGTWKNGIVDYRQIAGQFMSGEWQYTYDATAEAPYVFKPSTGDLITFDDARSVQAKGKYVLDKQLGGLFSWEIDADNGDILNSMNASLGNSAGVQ
T2 sequence (Q9BZP6 22-390 limits assumed): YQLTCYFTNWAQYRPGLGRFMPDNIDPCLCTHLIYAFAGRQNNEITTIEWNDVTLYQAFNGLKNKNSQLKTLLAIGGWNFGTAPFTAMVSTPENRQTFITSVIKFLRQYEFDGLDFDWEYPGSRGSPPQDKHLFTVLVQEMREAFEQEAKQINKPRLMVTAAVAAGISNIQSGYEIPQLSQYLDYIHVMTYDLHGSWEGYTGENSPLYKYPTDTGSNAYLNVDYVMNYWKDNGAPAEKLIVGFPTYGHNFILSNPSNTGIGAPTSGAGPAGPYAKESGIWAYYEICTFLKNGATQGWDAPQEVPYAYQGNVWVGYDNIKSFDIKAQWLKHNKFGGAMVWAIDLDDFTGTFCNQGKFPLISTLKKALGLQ
T3 sequence (Q2V6H4 19-407): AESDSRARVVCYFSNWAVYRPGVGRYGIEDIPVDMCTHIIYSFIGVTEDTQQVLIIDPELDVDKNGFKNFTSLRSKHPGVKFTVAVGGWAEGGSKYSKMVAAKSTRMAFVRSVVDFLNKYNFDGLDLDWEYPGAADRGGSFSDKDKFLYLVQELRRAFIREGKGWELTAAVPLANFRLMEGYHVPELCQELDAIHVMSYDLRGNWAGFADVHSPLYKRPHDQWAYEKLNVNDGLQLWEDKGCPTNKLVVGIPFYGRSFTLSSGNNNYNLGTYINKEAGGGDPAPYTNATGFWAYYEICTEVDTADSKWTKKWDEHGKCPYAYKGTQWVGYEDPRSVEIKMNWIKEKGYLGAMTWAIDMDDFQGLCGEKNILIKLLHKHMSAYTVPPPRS

With `C[C@H]1O[C@H](O[C@H]2[C@H](O)[C@@H](O)[C@@H](O)[C@H](O)[C@@H]2O)[C@@H](N)C[C@@H]1NC(=N)C(=O)O` [kasugamycin, Kasugamycin] the “increase of K i in buffer containing 1.0 M NaCl” value (HsCht [1]; 1.0 M NaCl vs. standard buffer) was 6 fold, the Ki (HsCht [1]; K i in the buffer with 1.0 M NaCl, buffer containing 1.0 M NaCl) was 1.62 µM and the Ki (HsCht [1]; K i, 20 mM sodium phosphate buffer pH 6.0, 30°C) was 0.25 µM. For the same compound, the mode of inhibition (HsCht [1]; inhibition kinetics) was “competitive”, the Ki (AMCase [2]) was 6.27 µM and the mode of inhibition (AMCase [2]; AMCase, inhibition kinetics) was “competitive”. For the same compound, the Ki (OfChtI [3]) was 0.47 µM, the mode of inhibition (OfChtI [3]; OfChtI, inhibition kinetics) was “competitive” and the inhibition at 10 µM (OfChtI [3]; at 10 μM, preliminary screening of a natural products library, read-out: inhibition against OfChtI) was 92.5%. For the same compound, the Ki (SmChiA [4]) was 29 µM, the mode of inhibition (SmChiA [4]; SmChiA, inhibition kinetics) was “competitive” and the Ki (OfChi-h [5]) was 2.7 µM. The mode of inhibition (OfChi-h [5]; OfChi-h, inhibition kinetics) was “competitive”, the Kd (HsCht [6]) was 0.92 µM and the Kd (AMCase [7]) was 15.8 µM. The Kd (OfChtI [8]) was 3.96 µM, the Kd (SmChiA [9]) was 34.1 µM and the Kd (OfChi-h [10]) was 11.5 µM.
